# Results taken from US20150197492A1, “NOVEL INDENO[1,2-c]QUINOLIN-11-ONE DERIVATIVES, PREPARATION METHOD AND APPLICATION THEREOF” (National Defense Medical Center, priority 2014, published 2015).
# Experiments:
# Assay type in all cases: cell-based
# K-562 = test: cells
# SNB-19 = test: cells
# A498 = test: cells
# MOLT-4 = test: cells
# MDA-MB-435 = test: cells
# 786-0 = test: cells
# RPMI-8226 = test: cells
# OVCAR-4 = test: cells
# HCT-15 = test: cells
# MDA-MB-468 = test: cells
# SN12C = test: cells
# UACC-257 = test: cells
# RXF 393 = test: cells
# HT29 = test: cells
# KM12 = test: cells
# human PC-3 cells = test: Sulforhodamine B (SRB) assay, cytotoxicity against PC-3 cells; conditions: SRB assay, PC-3 cells
# Procedure, shortened: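 PC-3 cells in 5% FBS were fixed with 10% TCA after 24 h as T0, then treated with compound for 48 h, fixed, stained with 0.4% SRB in 1% acetic acid and solubilized in 10 mmol/L Trizma base. Absorbance was read at 515 nm. GI% = 100−[(Tx−T0)/(C−T0)]×100, and IC50 is the concentration halving total protein.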
# T-47D = test: cells
# U251 = test: cells; conditions: CNS Cancer U251
# SW-620 = test: cells
# UO-31 = test: cells
# SK-OV-3 = test: cells
# ACHN = test: cells
# SK-MEL-28 = test: cells
# MALME-3M = test: cells
# IGROV1 = test: cells
# NCI-H226 = test: cells
# SNB-75 = test: cells
# [1] = system: 55 to 60 cancer cell lines; conditions: 10 μM
# MCF7 = test: cells
# UACC-62 = test: cells
# [2] = Homo sapiens, K562, Leukemia K-562
# [3] = Homo sapiens, CNS Cancer SNB-19
# [4] = Homo sapiens, Colon Cancer SW-620
# [5] = Homo sapiens, Melanoma MALME-3M
compound,measurement,setting,value
"O=C1c2cc(Cl)ccc2-c2c(N3CCNCC3)nc3ccccc3c21 [SJ-10, 9-Chloro-6-(piperazin-1-yl)-11H-indeno[1,2-c]quinolin-11-one]",GI50,K-562; [2],7.8 µM
same,"LC50 (lethal concentration, 50% cell kill)",K-562; [2],> 100 µM
same,growth percentage,"K-562; K-562 (Leukemia), 10 μM, 48 hours",-65.71%
same,TGI,K-562; Leukemia K-562,>100 µM
same,TGI,SNB-19; CNS Cancer SNB-19,>100 µM
same,GI50,SNB-19; [3],8.27 µM
same,LC50,SNB-19; [3],> 100 µM
same,growth percentage,"SNB-19; SNB-19 (CNS Cancer), 10 μM, 48 hours",67.25%
same,growth percentage,"A498; A498 (Renal Cancer), 10 μM, 48 hours",59.79%
same,GI50,"A498; Homo sapiens, Renal Cancer A498",2.63 µM
same,CC50,"A498; Homo sapiens, Renal Cancer A498, read-out: LC50 (the source's name)",> 100 µM
same,TGI,A498; Renal Cancer A498,>100 µM
same,GI50,"MOLT-4; Homo sapiens, Leukemia MOLT-4",4.41 µM
same,LC50 (concentration killing 50% of cells),"MOLT-4; Homo sapiens, Leukemia MOLT-4",> 100 µM
same,TGI,MOLT-4; Leukemia MOLT-4,>100 µM
same,growth percentage,"MOLT-4; MOLT-4 (Leukemia), 10 μM, 48 hours",-43.22%
same,GI50,"MDA-MB-435; Homo sapiens, Melanoma MDA-MB-435",7.01 µM
same,CC50,"MDA-MB-435; Homo sapiens, Melanoma MDA-MB-435, read-out: LC50 (the source's name)",> 100 µM
same,growth percentage,"MDA-MB-435; MDA-MB-435 (Melanoma), 10 μM, 48 hours",-6.57%
same,TGI,MDA-MB-435; Melanoma MDA-MB-435,>100 µM
same,growth percentage,"786-0; 786-0 (Renal Cancer), 10 μM, 48 hours",25.31%
same,GI50,"786-0; Homo sapiens, 786-0, Renal Cancer 786-O",23.5 µM
same,CC50,"786-0; Homo sapiens, 786-0, Renal Cancer 786-O, read-out: LC50 (the source's name)",> 100 µM
same,TGI,786-0; Renal Cancer 786-O,>100 µM
same,GI50,"RPMI-8226; Homo sapiens, Leukemia RPMI-8226",7.48 µM
same,CC50,"RPMI-8226; Homo sapiens, Leukemia RPMI-8226, read-out: LC50 (the source's name)",> 100 µM
same,TGI,RPMI-8226; Leukemia RPMI-8226,>100 µM
same,growth percentage,"RPMI-8226; RPMI-8226 (Leukemia), 10 μM, 48 hours",-43.57%
same,GI50,"OVCAR-4; Homo sapiens, Ovarian Cancer OVCAR-4",6.39 µM
same,CC50,"OVCAR-4; Homo sapiens, Ovarian Cancer OVCAR-4, read-out: LC50 (the source's name)",> 100 µM
same,growth percentage,"OVCAR-4; OVCAR-4 (Ovarian Cancer), 10 μM, 48 hours",35.59%
same,TGI,OVCAR-4; Ovarian Cancer OVCAR-4,>100 µM
same,TGI,HCT-15; Colon Cancer HCT-15,>100 µM
same,growth percentage,"HCT-15; HCT-15 (Colon Cancer), 10 μM, 48 hours",-78.92%
same,GI50,"HCT-15; Homo sapiens, Colon Cancer HCT-15",4.34 µM
same,CC50,"HCT-15; Homo sapiens, Colon Cancer HCT-15, read-out: LC50 (the source's name)",> 100 µM
same,TGI,MDA-MB-468; Breast Cancer MDA-MB-468,>100 µM
same,GI50,"MDA-MB-468; Homo sapiens, Breast Cancer MDA-MB-468",4.42 µM
same,CC50,"MDA-MB-468; Homo sapiens, Breast Cancer MDA-MB-468, read-out: LC50 (the source's name)",> 100 µM
same,growth percentage,"MDA-MB-468; MDA-MB-468 (Breast Cancer), 10 μM, 48 hours",-35.66%
same,GI50,"SN12C; Homo sapiens, Renal Cancer SN12C",5.42 µM
same,CC50,"SN12C; Homo sapiens, Renal Cancer SN12C, read-out: LC50 (the source's name)",> 100 µM
same,TGI,SN12C; Renal Cancer SN12C,>100 µM
same,growth percentage,"SN12C; SN12C (Renal Cancer), 10 μM, 48 hours",15.89%
same,GI50,"UACC-257; Homo sapiens, Melanoma UACC-257",35.1 µM
same,CC50,"UACC-257; Homo sapiens, Melanoma UACC-257, read-out: LC50 (the source's name)",> 100 µM
same,TGI,UACC-257; Melanoma UACC-257,>100 µM
same,growth percentage,"UACC-257; UACC-257 (Melanoma), 10 μM, 48 hours",-39.24%
same,GI50,"RXF 393; Homo sapiens, Renal Cancer RXF 393",4.55 µM
same,CC50,"RXF 393; Homo sapiens, Renal Cancer RXF 393, read-out: LC50 (the source's name)",> 100 µM
same,growth percentage,"RXF 393; RXF 393 (Renal Cancer), 10 μM, 48 hours",20.51%
same,TGI,RXF 393; Renal Cancer RXF 393,>100 µM
same,TGI,HT29; Colon Cancer HT29,>100 µM
same,growth percentage,"HT29; HT29 (Colon Cancer), 10 μM, 48 hours",-80.89%
same,GI50,"HT29; Homo sapiens, HT-29, Colon Cancer HT29",7.84 µM
same,CC50,"HT29; Homo sapiens, HT-29, Colon Cancer HT29, read-out: LC50 (the source's name)",> 100 µM
same,TGI,KM12; Colon Cancer KM12,>100 µM
same,GI50,"KM12; Homo sapiens, Colon Cancer KM12",2.5 µM
same,CC50,"KM12; Homo sapiens, Colon Cancer KM12, read-out: LC50 (the source's name)",> 100 µM
same,growth percentage,"KM12; KM12 (Colon Cancer), 10 μM, 48 hours",-47.09%
same,Toxicity (%),human PC-3 cells,47.2%
same,GI % (10 μM),human PC-3 cells; 10 μM,100%
same,TGI,T-47D; Breast Cancer T-47D,>100 µM
same,GI50,"T-47D; Homo sapiens, T47D, Breast Cancer T-47D",8.44 µM
same,CC50,"T-47D; Homo sapiens, T47D, Breast Cancer T-47D, read-out: LC50 (the source's name)",> 100 µM
same,growth percentage,"T-47D; T-47D (Breast Cancer), 10 μM, 48 hours",-31.54%
same,TGI,U251,>100 µM
same,GI50,"U251; Homo sapiens, U-251",4.82 µM
same,LC50 (concentration killing 50% of cells),"U251; Homo sapiens, U-251",> 100 µM
same,TGI,SW-620; Colon Cancer SW-620,>100 µM
same,GI50,SW-620; [4],5.14 µM
same,LC50 (concentration killing 50% of cells),SW-620; [4],> 100 µM
same,growth percentage,"SW-620; SW-620 (Colon Cancer), 10 μM, 48 hours",-73.67%
same,GI50,"UO-31; Homo sapiens, Renal Cancer UO-31",2.83 µM
same,CC50,"UO-31; Homo sapiens, Renal Cancer UO-31, read-out: LC50 (the source's name)",> 100 µM
same,TGI,UO-31; Renal Cancer UO-31,>100 µM
same,growth percentage,"UO-31; UO-31 (Renal Cancer), 10 μM, 48 hours",-40.61%
same,GI50,"SK-OV-3; Homo sapiens, Ovarian Cancer SK-OV-3",4.35 µM
same,CC50,"SK-OV-3; Homo sapiens, Ovarian Cancer SK-OV-3, read-out: LC50 (the source's name)",> 100 µM
same,TGI,SK-OV-3; Ovarian Cancer SK-OV-3,>100 µM
same,growth percentage,"SK-OV-3; SK-OV-3 (Ovarian Cancer), 10 μM, 48 hours",57.81%
same,growth percentage,"ACHN; ACHN (Renal Cancer), 10 μM, 48 hours",-83.29%
same,GI50,"ACHN; Homo sapiens, Renal Cancer ACHN",3.14 µM
same,CC50,"ACHN; Homo sapiens, Renal Cancer ACHN, read-out: LC50 (the source's name)",> 100 µM
same,TGI,ACHN; Renal Cancer ACHN,>100 µM
same,GI50,"SK-MEL-28; Homo sapiens, Melanoma SK-MEL-28",> 100 µM
same,CC50,"SK-MEL-28; Homo sapiens, Melanoma SK-MEL-28, read-out: LC50 (the source's name)",> 100 µM
same,TGI,SK-MEL-28; Melanoma SK-MEL-28,>100 µM
same,growth percentage,"SK-MEL-28; SK-MEL-28 (Melanoma), 10 μM, 48 hours",-91.38%
same,GI50,MALME-3M; [5],8.87 µM
same,LC50 (concentration killing 50% of cells),MALME-3M; [5],> 100 µM
same,growth percentage,"MALME-3M; MALME-3M (Melanoma), 10 μM, 48 hours",-32.28%
same,TGI,MALME-3M; Melanoma MALME-3M,>100 µM
same,GI50,"IGROV1; Homo sapiens, IGROV-1, Ovarian Cancer IGROV1",5.94 µM
same,CC50,"IGROV1; Homo sapiens, IGROV-1, Ovarian Cancer IGROV1, read-out: LC50 (the source's name)",> 100 µM
same,growth percentage,"IGROV1; IGROV1 (Ovarian Cancer), 10 μM, 48 hours",3.23%
same,TGI,IGROV1; Ovarian Cancer IGROV1,>100 µM
same,GI50,"NCI-H226; Homo sapiens, Non-Small Cell Lung Cancer NCI-H226",7.77 µM
same,CC50,"NCI-H226; Homo sapiens, Non-Small Cell Lung Cancer NCI-H226, read-out: LC50 (the source's name)",> 100 µM
same,growth percentage,"NCI-H226; NCI-H226 (Non-Small Cell Lung Cancer), 10 μM, 48 hours",49.94%
same,TGI,NCI-H226; Non-Small Cell Lung Cancer NCI-H226,>100 µM
same,TGI,SNB-75; CNS Cancer SNB-75,>100 µM
same,GI50,"SNB-75; Homo sapiens, CNS Cancer SNB-75",4.53 µM
same,CC50,"SNB-75; Homo sapiens, CNS Cancer SNB-75, read-out: LC50 (the source's name)",> 100 µM
same,growth percentage,"SNB-75; SNB-75 (CNS Cancer), 10 μM, 48 hours",22.34%
same,"inhibition effect in different cancer cell lines (summary of the NCI data, in words)",[1]; 48 hours,preferable inhibition effects in leukemia and colon cancer cells
same,Mean (mean growth percentage of the tested cancer cell lines),"[1]; 48 hours, all tested cell lines",−14.37%
same,cytotoxicity in the first stage (in words),[1]; basis for selection for the five-dose test,potential cytotoxicity
same,TGI,MCF7; Breast Cancer MCF7,>100 µM
same,GI50,"MCF7; Homo sapiens, Breast Cancer MCF7",5.42 µM
same,CC50,"MCF7; Homo sapiens, Breast Cancer MCF7, read-out: LC50 (the source's name)",> 100 µM
same,growth percentage,"MCF7; MCF7 (Breast Cancer), 10 μM, 48 hours",-100.00%
same,GI50,"UACC-62; Homo sapiens, Melanoma UACC-62",4.38 µM
same,CC50,"UACC-62; Homo sapiens, Melanoma UACC-62, read-out: LC50 (the source's name)",> 100 µM
same,TGI,UACC-62; Melanoma UACC-62,>100 µM
same,growth percentage,"UACC-62; UACC-62 (Melanoma), 10 μM, 48 hours",-81.71%
